From US20090203610A1, “METHODS OF TREATING OBESITY OR DIABETES USING NT-4/5” (RINAT NEUROSCIENCE CORPORATION, priority 2004, published 2009)

Test system: db/db mice
Test: Body weight of db/db mice (Example 1)
Format: in vivo
Settings: NT-4/5 20 mg/kg s.c., Rosiglitazone 3 mg/kg p.o.
Description: Throughout the experiment period (T1-T26), daily individual body weights as well as food intake per cage were measured.

Structure (SMILES): CN(CCOc1ccc(CC2SC(=O)NC2=O)cc1)c1ccccn1 (stereo not drawn) [Rosiglitazone, reference compound]
- body weight, mean (Day 0): 42.3 g
- body weight expressed as % of baseline, mean (Day 1): 98.3 % of baseline
- body weight, mean (Day 1): 41.6 g
- body weight expressed as % of baseline, mean (Day 2): 99.5 % of baseline
- body weight, mean (Day 2): 42.1 g
- body weight expressed as % of baseline, mean (Day 3): 100.0 % of baseline
- body weight, mean (Day 3): 42.3 g
- body weight expressed as % of baseline, mean (Day 4): 100.8 % of baseline
- body weight, mean (Day 4): 42.7 g
- body weight expressed as % of baseline, mean (Day 5): 102.2 % of baseline
- body weight, mean (Day 5): 43.3 g
- body weight expressed as % of baseline, mean (Day 6): 100.6 % of baseline
- body weight, mean (Day 6): 42.6 g
- body weight expressed as % of baseline, mean (Day 7): 101.1 % of baseline
- body weight, mean (Day 7): 42.8 g
- body weight expressed as % of baseline, mean (Day 8): 102.3 % of baseline
- body weight, mean (Day 8): 43.3 g
- body weight expressed as % of baseline, mean (Day 9): 103.8 % of baseline
- body weight, mean (Day 9): 43.9 g
- body weight expressed as % of baseline, mean (Day 10): 104.2 % of baseline
- body weight, mean (Day 10): 44.1 g
- body weight expressed as % of baseline, mean (Day 11): 104.9 % of baseline
- body weight, mean (Day 11): 44.4 g
- body weight expressed as % of baseline, mean (Day 12): 106.3 % of baseline
- body weight, mean (Day 12): 45.0 g
- body weight expressed as % of baseline, mean (Day 13): 104.9 % of baseline
- body weight, mean (Day 13): 44.4 g
- body weight expressed as % of baseline, mean (Day 14): 105.1 % of baseline
- body weight, mean (Day 14): 44.5 g
- body weight expressed as % of baseline, mean (Day 15): 104.9 % of baseline
- body weight, mean (Day 15): 44.4 g
- body weight expressed as % of baseline, mean (Day 18): 105.5 % of baseline
- body weight, mean (Day 18): 44.7 g
- body weight expressed as % of baseline, mean (Day 19): 106.0 % of baseline
- body weight, mean (Day 19): 44.9 g
- body weight expressed as % of baseline, mean (Day 20): 104.3 % of baseline
- body weight, mean (Day 20): 44.2 g
- body weight expressed as % of baseline, mean (Day 21): 105.3 % of baseline
- body weight, mean (Day 21): 44.6 g
- body weight expressed as % of baseline, mean (Day 22): 105.1 % of baseline
- body weight, mean (Day 22): 44.5 g
- body weight expressed as % of baseline, mean (Day 25): 106.7 % of baseline
- body weight, mean (Day 25): 45.2 g
- body weight expressed as % of baseline, mean (Day 26): 106.9 % of baseline
- body weight, mean (Day 26): 45.3 g
